Test results published in patent US4740233A, “Substituted 1,2,4-triazolo[1,5-a]-pyrimidine-2-sulfonamides and compositions and methods of controlling undesired vegetation and suppressing the nitrification of ammonium nitrogen in soil” (The Dow Chemical Company, priority 1986, dated 1988).

Assays:
pigweed = test: Preemergent control of plant species; type: in vivo, Amaranthus spp.; details: Amaranthus retroflexus, pre-emergence, 336 h; 0.25 lb/acre; read-out: percent preemergent control
In short: (§1)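 Seeds sown in agricultural soil in greenhouse beds, then aqueous-emulsion compositions applied uniformly to the bed surface at listed rates. Beds kept two weeks under greenhouse growth conditions with watering. Control expressed as growth reduction versus water-treated beds of the same species.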

[1] = test system: nitrification of ammonium nitrogen; test: Suppression of nitrification of ammonium nitrogen in soil; details: 27° C.
In short: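 Soil (20 g) moistened to its 1/3 bar tension value, mixed with test chemical and incubated sealed for two weeks at 27° C. Nitrate extracted with ammonium sulfate solution and measured by nitrate-specific ion electrode; value given as % NH4-N remaining.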

rice [2] = test: Preemergent control of plant species; type: in vivo, Oryza sativa; details: Oryza sativa, pre-emergence, 336 h; 0.25 lb/acre; read-out: percent preemergent control
In short: as §1

sprangletop = test: Control of aquatic plant species (paddy water); type: in vivo, Leptochloa filiformis; details: Leptochloa filiformis, 216 h, nine days, read-out: Percent control; for pest or weed control at 250 g/ha: 0.25 Kg/Ha
In short: (§2)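 Plants transplanted at 1-2 inch stage into soil, flooded about 1 inch deep; acetone concentrate of compound injected into paddy water at varied volumes to set concentration. Percent control scored nine days after application.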

johnson grass = test: Preemergent control of plant species; type: in vivo, Sorghum halepense; details: Sorghum halepense, pre-emergence, 336 h; 0.25 lb/acre; read-out: percent preemergent control
In short: as §1

barnyardgrass [3] = test: Control of aquatic plant species (paddy water); type: in vivo, Echinochloa crusgalli; details: Echinochloa crus-galli, 216 h, nine days, read-out: Percent control; for pest or weed control at 250 g/ha: 0.25 Kg/Ha
Experimental: In testing for such utility, the plant species to be tested were transplanted into 16 oz. containers into about 2 inches of soil when they were in the 1-2 inch stage and then flooded to a depth of about 1 inch. An acetone concentrate of the chemical to be tested was then injected into the paddy water, the volume injected being varied as desired to provide the desired concentration. Percent control was evaluated nine days after application.

yellow foxtail = test: Preemergent control of plant species; type: in vivo, Setaria lutescens; details: Setaria, pre-emergence, 336 h; 0.25 lb/acre; read-out: percent preemergent control
In short: as §1

jimsonweed = test: Preemergent control of plant species; type: in vivo, Datura stramonium; details: Datura stramonium, pre-emergence, 336 h; 0.25 lb/acre; read-out: percent preemergent control
In short: as §1

corn = test: Preemergent control of plant species; type: in vivo, Zea mays; details: Zea mays, pre-emergence, 336 h; 0.25 lb/acre; read-out: percent preemergent control
In short: as §1

annual morning glory = test: Preemergent control of plant species; type: in vivo, Ipomoea spp.; details: Ipomoea, pre-emergence, 336 h; 0.25 lb/acre; read-out: percent preemergent control
In short: as §1

velvetleaf = test: Preemergent control of plant species; type: in vivo, Abutilon theophrasti; details: Abutilon theophrasti, pre-emergence, 336 h; 0.25 lb/acre; read-out: percent preemergent control
In short: as §1

rice [4] = test: Control of aquatic plant species (paddy water); type: in vivo, Oryza sativa; details: Oryza sativa, 216 h, nine days, read-out: Percent control; for pest or weed control at 250 g/ha: 0.25 Kg/Ha
In short: as §2

crabgrass = test: Preemergent control of plant species; type: in vivo, Digitaria spp.; details: Digitaria sanguinalis, pre-emergence, 336 h; 0.25 lb/acre; read-out: percent preemergent control
In short: as §1

sugar beet = test: Preemergent control of plant species; type: in vivo, Beta saccharifera; details: Beta vulgaris, pre-emergence, 336 h; 0.25 lb/acre; read-out: percent preemergent control
In short: as §1

barnyardgrass [5] = test: Preemergent control of plant species; type: in vivo, Echinochloa crusgalli; details: Echinochloa crus-galli, pre-emergence, 336 h; 0.25 lb/acre; read-out: percent preemergent control
In short: as §1

wheat = test: Preemergent control of plant species; type: in vivo, Triticum aestivum; details: Triticum aestivum, pre-emergence, 336 h; 0.25 lb/acre; read-out: percent preemergent control
In short: as §1

cotton = test: Preemergent control of plant species; type: in vivo, Gossypium spp.; details: Gossypium hirsutum, pre-emergence, 336 h; 0.25 lb/acre; read-out: percent preemergent control
In short: as §1

sorghum = test: Preemergent control of plant species; type: in vivo, Sorghum vulgare; details: Sorghum, pre-emergence, 336 h; 0.25 lb/acre; read-out: percent preemergent control
In short: as §1

rape = test: Preemergent control of plant species; type: in vivo, Brassica napus; details: Brassica napus, pre-emergence, 336 h; 0.25 lb/acre; read-out: percent preemergent control
In short: as §1

wild oats = test: Preemergent control of plant species; type: in vivo; details: Avena fatua, pre-emergence, 336 h; 0.25 lb/acre; read-out: percent preemergent control
In short: as §1

yellow nutsedge [6] = test: Control of aquatic plant species (paddy water); type: in vivo, Cyperus esculentus; details: Cyperus, 216 h, nine days, read-out: Percent control; for pest or weed control at 250 g/ha: 0.25 Kg/Ha
In short: as §2

yellow nutsedge [7] = test: Preemergent control of plant species; type: in vivo, Cyperus esculentus; details: Cyperus, pre-emergence, 336 h; 0.25 lb/acre; read-out: percent preemergent control
In short: as §1

soybean = test: Preemergent control of plant species; type: in vivo, Glycine max.; details: Glycine max, pre-emergence, 336 h; 0.25 lb/acre; read-out: percent preemergent control
In short: as §1

[8] = test system: annual sugar beet variety (SLC03); test: Plant growth regulator activity, preemergence; type: in vivo; details: for minimal effective concentration: Beta vulgaris, pre-emergence, 6-7 weeks, read-out: Bolting Inhibition (preemergence), concentration with observed effect
Source text: Using a regular biennial variety, even a bolting-susceptible variety would require a cold treatment of around 10-16 weeks plus a hormone treatement in conjunction with specific light intensities. Thus, for a screening organism, we selected one which would consistently produce bolting on a regular schedule. The screen is run with an annual sugar beet variety (SLC03) provided by Dr. Richard J. Hecker, Fort Collins, Colo. This variety is an inbred which bolts in the 6- to 8-leaf stage without any need for vernalization. This allows the screen to be run entirely in the greenhouse with all 110 chemical compounds tested on one tray. The sugarbeets are grown in 3×3 inch square pots in a greenhouse sandy loam potting mix. The sugarbeets are sprayed with test compounds when they are 2 to 3 weeks old (2 true leaves). The compounds are dissolved in acetone and diluted with water containing Tween 20 as a wetting agent. The concentration of acetone in the final spray is 20% and the concentration of Tween 20 is 0.05 percent. The plants are examined for the appearance of a bolt 4 weeks after spraying.
Preemergence tests are conducted by spraying formulated chemical on seeds placed on potting soil. The sprayed seeds are then covered with 1/4 inch of potting soil and the pots are watered. Bolting is evaluated 6-7 weeks after the initiation of the test. At this time untreated plants have a vigorous bolting stem with visible flowers.

SMILES	pest or weed control at 280.212 g/ha (pigweed) [%]	% NH4-N Remaining After 2 Weeks Incubation ([1]; 0.06 ppm) [%]	% NH4-N Remaining After 2 Weeks Incubation ([1]; 0.25 ppm) [%]	% NH4-N Remaining After 2 Weeks Incubation ([1]; 1 ppm) [%]	plant injury at 280.212 g/ha (rice [2]) [%]	pest or weed control at 250 g/ha (sprangletop) [%]	pest or weed control at 280.212 g/ha (johnson grass) [%]	pest or weed control at 250 g/ha (barnyardgrass [3]) [%]	pest or weed control at 280.212 g/ha (yellow foxtail) [%]	pest or weed control at 280.212 g/ha (jimsonweed) [%]	plant injury at 280.212 g/ha (corn) [%]	pest or weed control at 280.212 g/ha (annual morning glory) [%]	pest or weed control at 280.212 g/ha (velvetleaf) [%]	pest or weed control at 250 g/ha (rice [4]) [%]	pest or weed control at 280.212 g/ha (crabgrass) [%]	plant injury at 280.212 g/ha (sugar beet) [%]	pest or weed control at 280.212 g/ha (barnyardgrass [5]) [%]	plant injury at 280.212 g/ha (wheat) [%]	plant injury at 280.212 g/ha (cotton) [%]	minimal effective concentration [8] [µg/mL]	also measured
Cc1cc(C)n2nc(S(=O)(=O)Nc3ccccc3C(F)(F)F)nc2n1 [Compound 13, 5,7-Dimethyl-N-(2-trifluoromethylphenyl)-1,2,4-triazolo[1,5-a]pyrimidine-2-sulfonamide]	95	73	81	89	95	10	95	93	90	70	80	90	95	97	80	98	95	20	95		% NH4-N Remaining After 2 Weeks Incubation ([1]; 0.125 ppm): 78%; % NH4-N Remaining After 2 Weeks Incubation ([1]; 0.5 ppm): 85%; plant injury at 280.212 g/ha (sorghum): 98%; plant injury at 280.212 g/ha (rape): 98%; pest or weed control at 280.212 g/ha (wild oats): 10%; pest or weed control at 250 g/ha (yellow nutsedge [6]): 93%; pest or weed control at 280.212 g/ha (yellow nutsedge [7]): 98%; plant injury at 280.212 g/ha (soybean): 95%
CCN(C)S(=O)(=O)c1ccccc1NS(=O)(=O)c1nc2ncc(Cl)cn2n1 [Compound 132]																				400	
CSc1cccc(NS(=O)(=O)c2nc3ncc(Cl)cn3n2)c1 [Compound 134]																				400	observed effect (preemergence) ([8]; 400 ppm): stunting
Cc1cc(C)n2nc(S(=O)(=O)Nc3c(Cl)cccc3Br)nc2n1 [Compound 39]	100			91	97	75	95	99	97	100	95	90	95	75	70	97	97	0	95		% NH4-N Remaining After 2 Weeks Incubation ([1]; 0.01 ppm): 49%; % NH4-N Remaining After 2 Weeks Incubation ([1]; 0.1 ppm): 78%; % NH4-N Remaining After 2 Weeks Incubation ([1]; 10 ppm): 100%; pest or weed control at 31 g/ha (sprangletop; 0.031 Kg/Ha): 0%; pest or weed control at 31 g/ha (barnyardgrass [3]; 0.031 Kg/Ha): 20%; pest or weed control at 31 g/ha (rice [4]; 0.031 Kg/Ha): 0%; plant injury at 280.212 g/ha (sorghum): 95%; plant injury at 280.212 g/ha (rape): 95%; pest or weed control at 280.212 g/ha (wild oats): 0%; pest or weed control at 31 g/ha (yellow nutsedge [6]; 0.031 Kg/Ha): 85%; pest or weed control at 250 g/ha (yellow nutsedge [6]): 99%; pest or weed control at 280.212 g/ha (yellow nutsedge [7]): 100%; plant injury at 280.212 g/ha (soybean): 95%
C=CCSc1ccccc1NS(=O)(=O)c1nc2nc(C)cc(C)n2n1 [Compound 66]		0	41	66																400	% NH4-N Remaining After 2 Weeks Incubation ([1]; 4 ppm): 78%
Cc1cc(C)n2nc(S(=O)(=O)Nc3ccccc3C#N)nc2n1 [Compound 14]				52																400	% NH4-N Remaining After 2 Weeks Incubation ([1]; 0.01 ppm): 0%; % NH4-N Remaining After 2 Weeks Incubation ([1]; 0.1 ppm): 10%; % NH4-N Remaining After 2 Weeks Incubation ([1]; 10 ppm): 77%
